Data taken from patent US5047533A, “Acyclic purine phosphonate nucleotide analogs” (SRI International, priority 1990, dated 1991).
Values after ≈ are worked out from the molar mass of the structure shown. Like-named read-outs stand apart in the source and are kept apart here.

Legend:
[1] = test system: HSV-1TK+ (Strain McCrae of type 1 herpes); assay: Inhibition of viral CPE, HSV-1TK+ in MA-104 cells; type: cell-based; settings: for inhibition at 1 µg/mL: 1.0 μg/ml; for inhibition at 3.2 µg/mL: 3.2 μg/ml; for inhibition at 10 µg/mL: 10 μg/ml; for inhibition at 100 µg/mL: 100 μg/ml; for inhibition at 320 µg/mL: 320 μg/ml; for inhibition at 1000 µg/mL: 1000 μg/ml
Protocol: (§1) One herpes virus strain employed was Strain McCrae of type 1 herpes (thymidine kinase positive virus) (HSV-1TK^+). This strain was prepared and titered in MA-104 cells and frozen at -90° C. until use. Also used were strain HF (HSV-1TK^-). Strain E194 (HSV-2), NJB strain (MCMV), strain AD169 (HCMV).
(§2) Continuous passaged monkey kidney (MA-104) cells were used for testing of herpes-type virus, with growth medium consisting of Minimum Essential Medium (MEM) supplemented with 0.1% NaHCO3 and […] gentamicin.
(§3) To a 96 well microtiter plate containing an established 24 hour monolayer of cells from which the medium has been decanted was added 0.1 ml of varying (one-half log10) concentrations of test compound, which incubated on the cell 15 minutes, after which 0.1 ml of virus in a concentration of 320 cell culture 50% infectious doses (CCID50)/0.1 ml was added. The plate was covered with plastic wrap and incubated at 37° C. Included with the test were toxicity controls (each concentration of compound+test medium in place of virus), virus controls (virus+test medium in place of compound) and cell controls (test medium in place of compound and virus). The cells were examined microscopically after 72 hours for evidence of cytotoxicity and for viral cytopathic effect (CPE). Vidarabine was run on the same plate in parallel. The test compounds were added to the medium at a concentration of 2000 μg/ml for use as a positive control.
Antiviral activity was determined by observation of inhibition of viral CPE. This activity was expressed by ED50, defined as that dose range of compound causing 50% CPE inhibition.
A Virus Rating (VR) was also determined. VR is a numerical expression of antiviral activity, weighted to take into account any cytotoxicity observed, as discussed by Sidewell et al, Appl Microbiol (1971) 22:797. Generally, a VR of 0.1-0.4 indicates slight antiviral effect, 0.5-0.9 indicates moderate antiviral effect, and ≥1.0 indicates strong antiviral effect.

[2] = test system: human cytomegalovirus (strain AD169); assay: Plaque reduction, human cytomegalovirus; type: cell-based
Protocol: as §1
^a 50% effective dose, determined from plot of data.
(§4) The data on acyclovir were gathered from tests run in MRC-5 cells grown under agarose overlay, with plaques read 7 days after virus exposure.

[3] = test system: HSV-2 (Strain E194); assay: Inhibition of viral CPE, HSV-2; type: cell-based
Protocol: as §1, §2
as §3, with “The test compounds were added to the medium at a concentration of 2000 μg/ml for use as a positive control.” left out
(§5) Antiviral activity was determined by observation of inhibition of viral CPE. […]

[4] = Cytotoxicity (maximum tolerated dose), control tests in 96-well microplates; type: cell-based; settings: Table 5; microscopic examination, separately run control tests; read-out: Approx. MTD (dose causing approximately 50% cytotoxic effects in cells)
Excerpt: (§6) ^b Maximum tolerated dose: That dose causing approximately 50%
(§7) cytotoxic effects in cells, determined by the microscopic examination of
(§8) cells for sloughing, shape alteration, and granularity in separately run
(§9) control tests in 96well microplates.
as §4

[5] = test system: cells; assay: as above; type: cell-based; settings: overall, Table 5
Excerpt: as §6, §7, §8, §9, §4

[6] = test system: murine CMV (NJB strain); assay: Inhibition of viral CPE, murine CMV; type: cell-based
Protocol: as §1, §2
as §3, with “Vidarabine was run on the same plate in parallel. The test compounds were added to the medium at a concentration of 2000 μg/ml for use as a positive control.” left out
as §5
A Virus Rating (VR) was also determined. […]

[7] = test system: reverse transcriptase (RT) from Moloney murine leukemia virus (MMLV) or avian myeloblastosis virus (AMV); assay: Reverse transcriptase assay; type: biochemical; settings: 8 mM concentration
Protocol: For the reverse transcriptase assay, cloned reverse transcriptase (RT) (Bethesda Research Laboratories) from Moloney murine leukemia virus (MMLV) or avian myeloblastosis virus (AMV) (Seikagaku or Boehringer Mannheim) was used to direct DNA synthesis from a polyribonucleotide template and a oligodeoxynucleotide primer under reaction conditions (Houts, G. E., et al, J Virol (1979) 29:517.)
Reaction mixtures (100 μl) for the assay of MMLV RT consisted of 50 mM Tris-hydrochloride, pH 8.0, 6 mM MgCl2, 40 mM KCl, 100 μg bovine serum albumin per ml, 1 mM dithiothreitol, 0.1 mM polyadenylic acid (Pharmacia, Inc.), 0.1 mM oligo(dT)12-18 (Pharmacia, Inc.), 0.4 mM deoxythymidine triphosphate (dTTP), and 0.1 mM tritiated (93.5 Cl/mmol) dTTP (New England Nuclear). The compounds assayed were added in various concentrations and dilutions at a volume of 10 μl. Results were confirmed by duplicate assays. Dilutions were made using 10% aqueous DMSO. The total activity was measured by spotting on dry Whatman 3 mm filter disks and radioactivity was determined by liquid scintillation techniques. The assay time course was begun by adding 10 units of RT from MMLV or AMV and incubating the reaction at 37° C. […] Disks were dried under a heat lamp and the acid-insoluble product radioactivity was determined by liquid scintillation counting. […]

[8] = test system: HIV; assay: Antiviral activity versus HIV in lymphoblastoid cells; type: cell-based; settings: Human immunodeficiency virus 1, Lymphoblastoid cell; read-out: ED50 against HIV
Protocol: The compounds of the invention were evaluated in vitro as antiviral agents against herpes virus and against RNA retrovirus. Various herpes strains were used. An infected B lymphoblastoid cell line was used as HIV substrate to test antiviral activity with respect to RNA retrovirus.
To test antiviral activity versus HIV, the following procedure was used: Infectious HIV was assayed in cell culture as described originally by Barre-Sinoussi et al for isolation of LAV, except that persistently infected lymphoblastoid cells were used instead of mononuclear cells from anti-LAV negative donors. HIV obtained from cell culture was stored in liquid nitrogen in aliquots of RPMI 1640 culture medium with 20% of total calf serum and 20% glycerol and containing 1,000 TCID-50 HIV. The lymphoblastoid cells (10^6) were incubated with 1,000 TCID-50 of HIV obtained from cell cultures, and cells were then cultured in RPMI-1640 medium. Culture medium was changed every 3 days for 3 weeks and the medium for each 3-day period from Day 6 through Day 21 was assayed for viral reverse transcriptase activity by concentrating (pelleting) virus by ultracentrifugation in the 100 place Spinco 25 rotor and assaying pellets for reverse transcriptase (RT) using a ^32 P-dTTP in the presence of dimer-template poly rA-oligo dT. […]

[9] = test system: HSV-1TK+; assay: In vivo guinea pig HSV-1TK+ lesion test, topical solution; settings: guinea pigs; 5% solution of acyclovir; five days after treatment
Protocol: Compound 2 also was tested in vivo in guinea pigs as an agent against HSV-1TK^+. The animals were inoculated with the virus; 18 hours later Compound 2 at two concentrations (0.4% and 1-2% (saturated) solution in water) was administered, and five days later blister diameters at the point of inoculation were measured. A 5% solution of acyclovir or a 1.4% solution of poly(vinylalcohol) was used as control. Satellite lesions were measured, as well.

[10] = MA104, read-out: CPE Inhib., Table 2
[11] = MA104, read-out: CPE Inhib., Table 3 Test 1
[12] = MA104, read-out: CPE Inhib., Table 3 Test 2

Structure (SMILES): Nc1ncnc2c1ncn2[C@@H]1O[C@H](CO)[C@@H](O)[C@@H]1O [Vidarabine]
- EC50 ([1]; MA104, 72 h, read-out: ED50): 10 µg/mL (≈ 37.4 µM)
- inhibition at 1 µg/mL [1, 10]: 56%
- inhibition at 3.2 µg/mL [1, 10]: 28%
- inhibition at 10 µg/mL [1, 10]: 69%
- inhibition at 32 µg/mL ([1]; MA104, read-out: CPE Inhib., Table 2, 32 μg/ml): 87%
- inhibition at 100 µg/mL [1, 10]: 87%
- inhibition at 320 µg/mL [1, 10]: 100%
- inhibition at 1000 µg/mL [1, 10]: 100%
- inhibition at 1 µg/mL [1, 11]: 0%
- inhibition at 10 µg/mL [1, 11]: 60%
- inhibition at 320 µg/mL [1, 11]: 100%
- inhibition at 1000 µg/mL [1, 11]: 100%
- inhibition at 1 µg/mL [1, 12]: 0%
- inhibition at 3.2 µg/mL [1, 12]: 0%
- inhibition at 100 µg/mL [1, 12]: 85%
- inhibition at 320 µg/mL [1, 12]: 100%
- inhibition at 1000 µg/mL [1, 12]: 100%
- VR (Virus Rating) ([1]; Table 2, HSV-1TK+): 1.3
- VR (Virus Rating) ([1]; Table 3 Test 1, HSV-1TK+): 0.8
- VR (Virus Rating) ([1]; Table 3 Test 2, HSV-1TK+): 0.7

Structure (SMILES): CCOP(=O)(O)CCC(CO)OCn1cnc2c(=O)[nH]c(N)nc21 (stereo not drawn) [Compound 5, 9(3'-ethylphosphono-1'-hydroxymethyl-1'-propyloxymethyl)guanine]
- effectiveness against HSV1TK+ [1]: mildly effective
- No. Plaques ([2]; Experiment No. 1, 32 μg/ml): 2
- No. Plaques ([2]; Experiment No. 1, 100 μg/ml): 1
- No. Plaques ([2]; Experiment No. 2, 10 μg/ml): 7
- No. Plaques ([2]; Experiment No. 2, 32 μg/ml): 3
- No. Plaques ([2]; Experiment No. 2, 100 μg/ml): 0
- inhibition at 32 µg/mL ([2]; Human betaherpesvirus 5, AD169, read-out: % Reduct., Experiment No. 1, 32 μg/ml): 88%
- inhibition at 100 µg/mL ([2]; Human betaherpesvirus 5, AD169, read-out: % Reduct., Experiment No. 1, 100 μg/ml): 94%
- inhibition at 10 µg/mL ([2]; Human betaherpesvirus 5, AD169, read-out: % Reduct., Experiment No. 2, 10 μg/ml): 68%
- inhibition at 32 µg/mL ([2]; Human betaherpesvirus 5, AD169, read-out: % Reduct., Experiment No. 2, 32 μg/ml): 86%
- inhibition at 100 µg/mL ([2]; Human betaherpesvirus 5, AD169, read-out: % Reduct., Experiment No. 2, 100 μg/ml): 100%
- EC50 ([2]; Human betaherpesvirus 5, AD169, read-out: Approx. ED50, Experiment No. 1, determined from plot of data): ~0.1 µg/mL (≈ 0.277 µM)
- EC50 ([2]; Human betaherpesvirus 5, AD169, read-out: Approx. ED50, Experiment No. 2, determined from plot of data): ~3.2 µg/mL (≈ 8.86 µM)
- EC50 ([2]; Human betaherpesvirus 5, AD169, read-out: ED50, human CMV): 0.1 to 3.2 µg/mL (≈ 0.277 to 8.86 µM)
- human CMV-inhibitory effect relative to acyclovir ([2]; overall, Table 5): more potent
- effectiveness against HSV-2 [3]: mildly effective
- CC50 [4]: ~1000 µg/mL (≈ 2770 µM)
- cytotoxicity relative to acyclovir [5]: no more cytotoxic

Structure (SMILES): Nc1nc2c(ncn2COCCCP(=O)(O)O)c(=O)[nH]1 [Compound 1, 9-(3'-phosphono-1'-propoxymethyl)guanine]
- activity against HSV-1TK+ relative to vidarabine [1]: comparable to that of vidarabine
- VR (Virus Rating) ([1]; additional tests against HSV-1TK+): 0.6
- activity against murine CMV [6]: not active
- inhibition of reverse transcriptase [7]: 75%
- EC50 [8]: 40 to 50 µg/mL (≈ 132 to 165 µM)

Structure (SMILES): Nc1nc2c(ncn2COCCO)c(=O)[nH]1 [Acyclovir, 9-(2-hydroxyethoxymethyl) guanine, reference compound]
- No. Plaques ([2]; Experiment No. 1, 32 μg/ml): 7
- No. Plaques ([2]; Experiment No. 1, 100 μg/ml): 1
- No. Plaques ([2]; Experiment No. 2, 10 μg/ml): 20
- No. Plaques ([2]; Experiment No. 2, 32 μg/ml): 8
- No. Plaques ([2]; Experiment No. 2, 100 μg/ml): 1
- Approx. ED50 ([2]; Experiment No. 2, determined from plot of data): 10 to 32 µg/mL
- inhibition at 32 µg/mL ([2]; Human betaherpesvirus 5, AD169, Experiment No. 1, 32 μg/ml, read-out: % Reduct.): 59%
- inhibition at 100 µg/mL ([2]; Human betaherpesvirus 5, AD169, Experiment No. 1, 100 μg/ml, read-out: % Reduct.): 94%
- inhibition at 10 µg/mL ([2]; Human betaherpesvirus 5, AD169, Experiment No. 2, 10 μg/ml, read-out: % Reduct.): 9%
- inhibition at 32 µg/mL ([2]; Human betaherpesvirus 5, AD169, Experiment No. 2, 32 μg/ml, read-out: % Reduct.): 64%
- inhibition at 100 µg/mL ([2]; Human betaherpesvirus 5, AD169, Experiment No. 2, 100 μg/ml, read-out: % Reduct.): 96%
- EC50 ([2]; Human betaherpesvirus 5, AD169, Experiment No. 1, determined from plot of data, read-out: Approx. ED50): 10 to 32 µg/mL (≈ 44.4 to 142 µM)
- TK+ (average number of lesions) [9]: 1.0
- CC50 [4]: ~1000 µg/mL (≈ 4440 µM)
